Assay results reported in ChEMBL document CHEMBL3132856, “Novel pyrazolo[1,5-a]pyridines as PI3K inhibitors: variation of the central linker group” (Medchemcomm, 2014).

Legend:
[1] = biological target: Phosphatidylinositol 4,5-bisphosphate 3-kinase catalytic subunit alpha isoform (Homo sapiens, UniProt P42336); assay: Inhibition of PI3Kalpha (unknown origin)
[2] = biological target: Phosphatidylinositol 4,5-bisphosphate 3-kinase catalytic subunit beta isoform (Homo sapiens, UniProt P42338); assay: Inhibition of PI3Kbeta (unknown origin)
[3] = biological target: T1, Phosphatidylinositol 4,5-bisphosphate 3-kinase catalytic subunit delta isoform (Homo sapiens, UniProt O00329); assay: Inhibition of PI3Kdelta (unknown origin)
T1 sequence (O00329 whole entry): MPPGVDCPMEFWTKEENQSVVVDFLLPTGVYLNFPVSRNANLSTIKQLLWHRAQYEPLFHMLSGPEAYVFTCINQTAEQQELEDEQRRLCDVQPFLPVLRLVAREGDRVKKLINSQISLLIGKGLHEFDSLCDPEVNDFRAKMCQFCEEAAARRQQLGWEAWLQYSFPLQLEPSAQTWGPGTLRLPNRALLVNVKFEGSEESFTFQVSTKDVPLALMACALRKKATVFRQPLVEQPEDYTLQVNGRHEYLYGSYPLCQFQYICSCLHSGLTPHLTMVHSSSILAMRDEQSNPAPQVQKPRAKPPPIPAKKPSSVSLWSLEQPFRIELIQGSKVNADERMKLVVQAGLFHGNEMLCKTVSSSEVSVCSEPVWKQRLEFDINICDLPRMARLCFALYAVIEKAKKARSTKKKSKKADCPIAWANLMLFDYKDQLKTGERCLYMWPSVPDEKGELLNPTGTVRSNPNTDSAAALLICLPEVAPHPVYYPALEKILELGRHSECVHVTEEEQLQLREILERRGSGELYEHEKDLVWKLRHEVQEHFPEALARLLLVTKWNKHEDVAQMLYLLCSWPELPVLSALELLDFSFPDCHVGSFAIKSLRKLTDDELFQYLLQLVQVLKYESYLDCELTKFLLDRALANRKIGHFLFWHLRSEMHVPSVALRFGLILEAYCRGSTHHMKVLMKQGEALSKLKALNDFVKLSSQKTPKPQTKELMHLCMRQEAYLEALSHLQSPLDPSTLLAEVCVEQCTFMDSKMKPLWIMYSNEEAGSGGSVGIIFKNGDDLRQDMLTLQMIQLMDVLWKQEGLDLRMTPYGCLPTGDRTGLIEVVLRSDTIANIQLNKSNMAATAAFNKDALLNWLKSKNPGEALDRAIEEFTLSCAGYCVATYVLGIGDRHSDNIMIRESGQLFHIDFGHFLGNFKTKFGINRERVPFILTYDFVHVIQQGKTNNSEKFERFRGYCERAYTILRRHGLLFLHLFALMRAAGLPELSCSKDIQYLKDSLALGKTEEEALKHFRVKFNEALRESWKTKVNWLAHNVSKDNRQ

Homo sapiens [4] = organism: Homo sapiens; assay: Selectivity ratio of IC50 for PI3Kdelta (unknown origin) to IC50 for PI3Kalpha (unknown origin)
Homo sapiens [5] = organism: Homo sapiens; assay: Selectivity ratio of IC50 for PI3Kalpha (unknown origin) to IC50 for PI3Kdelta (unknown origin)
Homo sapiens [6] = organism: Homo sapiens; assay: Selectivity ratio of IC50 for PI3Kbeta (unknown origin) to IC50 for PI3Kalpha (unknown origin)

Chain of Phosphatidylinositol 4,5-bisphosphate 3-kinase catalytic subunit beta isoform (P42338 whole entry, canonical isoform): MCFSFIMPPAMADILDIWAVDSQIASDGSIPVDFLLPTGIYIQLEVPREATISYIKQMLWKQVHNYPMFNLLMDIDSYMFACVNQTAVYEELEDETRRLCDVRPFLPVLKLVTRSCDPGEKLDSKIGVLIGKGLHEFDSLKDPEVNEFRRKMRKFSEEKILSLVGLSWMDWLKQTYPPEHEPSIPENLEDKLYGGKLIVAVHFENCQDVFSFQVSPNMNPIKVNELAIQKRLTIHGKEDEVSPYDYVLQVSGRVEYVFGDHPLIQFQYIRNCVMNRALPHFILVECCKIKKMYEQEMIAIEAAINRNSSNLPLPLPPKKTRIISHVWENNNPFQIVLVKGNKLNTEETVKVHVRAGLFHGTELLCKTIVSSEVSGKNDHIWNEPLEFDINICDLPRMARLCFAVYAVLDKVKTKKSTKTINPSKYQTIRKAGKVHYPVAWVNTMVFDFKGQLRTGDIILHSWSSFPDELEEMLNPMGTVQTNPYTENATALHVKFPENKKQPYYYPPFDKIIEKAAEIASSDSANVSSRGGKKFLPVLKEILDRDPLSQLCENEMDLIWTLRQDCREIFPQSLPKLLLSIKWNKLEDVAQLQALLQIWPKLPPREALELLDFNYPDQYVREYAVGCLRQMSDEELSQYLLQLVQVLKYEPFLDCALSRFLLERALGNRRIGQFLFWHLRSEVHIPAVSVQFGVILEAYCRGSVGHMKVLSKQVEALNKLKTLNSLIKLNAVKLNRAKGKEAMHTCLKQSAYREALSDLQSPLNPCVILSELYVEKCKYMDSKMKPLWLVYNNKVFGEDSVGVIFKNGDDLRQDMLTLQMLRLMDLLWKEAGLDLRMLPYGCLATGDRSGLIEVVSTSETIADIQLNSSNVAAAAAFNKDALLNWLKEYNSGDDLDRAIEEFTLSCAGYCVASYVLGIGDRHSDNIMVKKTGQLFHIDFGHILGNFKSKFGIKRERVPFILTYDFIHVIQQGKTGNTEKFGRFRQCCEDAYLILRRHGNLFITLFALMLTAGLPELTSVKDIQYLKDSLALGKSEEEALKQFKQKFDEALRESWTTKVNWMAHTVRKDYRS
Chain of Phosphatidylinositol 4,5-bisphosphate 3-kinase catalytic subunit alpha isoform (P42336 whole entry, canonical isoform): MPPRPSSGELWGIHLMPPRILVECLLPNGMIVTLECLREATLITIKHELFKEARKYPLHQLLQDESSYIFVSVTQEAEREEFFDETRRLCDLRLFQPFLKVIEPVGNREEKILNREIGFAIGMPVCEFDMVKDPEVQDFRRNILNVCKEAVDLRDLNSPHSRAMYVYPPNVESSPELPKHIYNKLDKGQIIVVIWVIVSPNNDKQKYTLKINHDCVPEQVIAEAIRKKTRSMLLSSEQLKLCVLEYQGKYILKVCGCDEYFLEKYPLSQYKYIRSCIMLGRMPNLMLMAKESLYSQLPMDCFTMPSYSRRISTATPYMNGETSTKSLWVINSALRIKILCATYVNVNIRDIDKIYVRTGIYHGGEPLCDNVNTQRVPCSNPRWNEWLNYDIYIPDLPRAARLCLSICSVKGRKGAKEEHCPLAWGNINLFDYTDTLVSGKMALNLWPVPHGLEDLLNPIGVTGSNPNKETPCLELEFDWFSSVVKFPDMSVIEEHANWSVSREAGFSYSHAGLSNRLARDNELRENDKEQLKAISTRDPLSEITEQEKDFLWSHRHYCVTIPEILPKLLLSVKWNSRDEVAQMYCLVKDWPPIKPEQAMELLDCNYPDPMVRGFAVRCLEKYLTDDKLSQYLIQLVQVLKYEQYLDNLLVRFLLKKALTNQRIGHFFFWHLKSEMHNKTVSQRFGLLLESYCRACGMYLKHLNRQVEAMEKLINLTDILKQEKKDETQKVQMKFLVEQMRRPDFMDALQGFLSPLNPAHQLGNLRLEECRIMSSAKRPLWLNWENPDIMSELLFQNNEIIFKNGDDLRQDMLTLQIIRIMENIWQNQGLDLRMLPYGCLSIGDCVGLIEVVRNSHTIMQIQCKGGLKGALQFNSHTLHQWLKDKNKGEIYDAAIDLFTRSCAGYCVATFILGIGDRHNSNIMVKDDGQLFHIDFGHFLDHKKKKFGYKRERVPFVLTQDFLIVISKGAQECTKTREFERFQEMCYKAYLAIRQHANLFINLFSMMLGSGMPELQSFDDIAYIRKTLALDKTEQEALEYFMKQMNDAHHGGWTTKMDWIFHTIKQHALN

| IC50 [1] [nM] | IC50 [2] [nM] | IC50 [3] [nM] | Ratio IC50 (Homo sapiens [4]) | Ratio IC50 (Homo sapiens [5]) | Ratio IC50 (Homo sapiens [6]) | SMILES |
| --- | --- | --- | --- | --- | --- | --- |
| > 1000 | > 1000 | > 1000 |  |  |  | Cc1ccc([N+](=O)[O-])cc1S(=O)(=O)N1CCN(Cc2cnn3ccc(C#N)cc23)CC1 |
| 3000 | > 1000 | > 1000 |  |  |  | Cc1ccc([N+](=O)[O-])cc1S(=O)(=O)N1CCC(c2cnn3ccc(Br)cc23)C1 (centres undefined) |
| > 1000 | > 1000 | > 1000 |  |  |  | Cc1ccc([N+](=O)[O-])cc1Cc1nc(-c2cnn3ccc(Br)cc23)cs1 |
| 4030 | 4340 | 250 | 5 | 16 |  | CN(C)CCN(C)c1ccc(C#N)cc1[S+]([O-])c1nc(-c2cnn3ccc(Br)cc23)cs1 (centres undefined) |
| 170 | > 1000 | 150 |  |  |  | N#Cc1cc(S(=O)(=O)c2nc(-c3cnn4ccc(Br)cc34)cs2)ccc1F |
| > 1000 | > 1000 | > 1000 |  |  |  | Cc1ccc([N+](=O)[O-])cc1S(=O)(=O)N[C@@H]1CCN(Cc2cnn3ccc(C#N)cc23)C1 |
| > 1000 | > 1000 | > 1000 |  |  |  | Cc1ccc([N+](=O)[O-])cc1S(=O)(=O)/N=c1/scc(-c2cnn3ccc(Br)cc23)n1C |
| > 1000 | > 1000 | > 1000 |  |  |  | Cc1ccc([N+](=O)[O-])cc1C(=O)N[C@@H]1CCCN(Cc2cnn3ccc(C#N)cc23)C1 |
| > 1000 | > 1000 | > 1000 |  |  |  | Cc1ccc([N+](=O)[O-])cc1S(=O)(=O)NC1CCN(Cc2cnn3ccc(C#N)cc23)CC1 |
| > 1000 | > 1000 | > 1000 |  |  |  | Cc1ccc([N+](=O)[O-])cc1S(=O)(=O)N1CCCN(Cc2cnn3ccc(C#N)cc23)CC1 |
| 240 | 140 | 90 |  |  |  | Cc1ccc([N+](=O)[O-])cc1S(=O)(=O)Cc1nc(-c2cnn3ccc(Br)cc23)cs1 |
| > 1000 | > 1000 | > 1000 |  |  |  | Cc1ccc([N+](=O)[O-])cc1C(=O)NC1CCN(Cc2cnn3ccc(C#N)cc23)CC1 |
| > 1000 | > 1000 | > 1000 |  |  |  | Cc1ccc([N+](=O)[O-])cc1C(=O)N[C@@H]1CCN(Cc2cnn3ccc(C#N)cc23)C1 |
| 1260 | > 1000 | > 1000 |  |  |  | Cc1ccc([N+](=O)[O-])cc1S(=O)(=O)Nc1nc(-c2cnn3ccc(Br)cc23)cs1 |
| > 1000 | > 1000 | > 1000 |  |  |  | O=[N+]([O-])c1cccc(Sc2nc(-c3cnn4ccc(Br)cc34)cs2)c1 |
| > 1000 | > 1000 | > 1000 |  |  |  | Cc1ccc([N+](=O)[O-])cc1S(=O)(=O)N[C@@H]1CCCN(Cc2cnn3ccc(C#N)cc23)C1 |
| > 1000 | > 1000 | > 1000 |  |  |  | Cc1ccc([N+](=O)[O-])cc1S(=O)(=O)N[C@H]1CCCN(Cc2cnn3ccc(C#N)cc23)C1 |
| > 1000 | > 1000 | > 1000 |  |  |  | Cc1ccc([N+](=O)[O-])cc1CS(=O)(=O)c1nc(-c2cnn3ccc(Br)cc23)cs1 |
| > 1000 | > 1000 | > 1000 |  |  |  | Cc1ccc([N+](=O)[O-])cc1C(=O)NC1CN(Cc2cnn3ccc(C#N)cc23)C1 |
| 590 | > 1000 | > 1000 |  |  |  | Cc1ccc([N+](=O)[O-])cc1S(=O)(=O)N1CCCC(c2cnn3ccc(Br)cc23)C1 (centres undefined) |

| IC50 [1] [nM] | IC50 [2] [nM] | IC50 [3] [nM] | Ratio IC50 (Homo sapiens [4]) | Ratio IC50 (Homo sapiens [5]) | Ratio IC50 (Homo sapiens [6]) | SMILES |
| --- | --- | --- | --- | --- | --- | --- |
| > 1000 | > 1000 | > 1000 |  |  |  | Cc1ccc([N+](=O)[O-])cc1CSc1nc(-c2cnn3ccc(Br)cc23)cs1 |
| 740 | 4420 | 320 |  |  | < 10 | O=[N+]([O-])c1cccc([S+]([O-])c2nc(-c3cnn4ccc(Br)cc34)cs2)c1 (centres undefined) |
| 630 |  |  |  |  | < 10 | O=[N+]([O-])c1cccc(S(=O)(=O)c2nc(-c3cnn4ccc(Br)cc34)cs2)c1 |
| 2130 | > 1000 | 240 |  | 9 |  | N#Cc1cc(S(=O)(=O)c2nc(-c3cnn4ccc(Br)cc34)cs2)ccc1NCCN1CCOCC1 |
| > 1000 | > 1000 | > 1000 |  |  |  | Cc1ccc([N+](=O)[O-])cc1-c1nc(-c2cnn3ccc(Br)cc23)cs1 |
| 300 | > 1000 | 200 |  |  |  | N#Cc1ccc(F)c([S+]([O-])c2nc(-c3cnn4ccc(Br)cc34)cs2)c1 (centres undefined) |
| > 1000 | > 1000 | 1550 |  |  |  | Cc1ccc([N+](=O)[O-])cc1S(=O)(=O)N(C)c1nc(-c2cnn3ccc(Br)cc23)cs1 |
| > 1000 | > 1000 | > 1000 |  |  |  | Cc1ccc([N+](=O)[O-])cc1C(=O)N[C@H]1CCN(Cc2cnn3ccc(C#N)cc23)C1 |
| 140 | > 1000 | 3350 |  |  |  | Cc1ccc([N+](=O)[O-])cc1S(=O)(=O)C/C=C/c1cnn2ccc(Br)cc12 |
| 370 | 3560 | 2000 |  |  |  | CN(C)CCN(C)c1ccc(C#N)cc1S(=O)(=O)c1nc(-c2cnn3ccc(Br)cc23)cs1 |
| > 1000 | > 1000 | > 1000 |  |  |  | Cc1ccc([N+](=O)[O-])cc1C(=O)N[C@H]1CCCN(Cc2cnn3ccc(C#N)cc23)C1 |
| 720 | > 1000 | 440 |  |  |  | N#Cc1ccc(F)c(S(=O)(=O)c2nc(-c3cnn4ccc(Br)cc34)cs2)c1 |
| 2470 | > 1000 | 640 |  | 4 |  | CN(C)CCN(C)c1ccc(S(=O)(=O)c2nc(-c3cnn4ccc(Br)cc34)cs2)cc1C#N |
| > 1000 | > 1000 | > 1000 |  |  |  | Cc1ccc([N+](=O)[O-])cc1C(=O)N1CCC(c2cnn3ccc(Br)cc23)CC1 |
| > 1000 | > 1000 | > 1000 |  |  |  | Cc1ccc([N+](=O)[O-])cc1S(=O)(=O)NC1CN(Cc2cnn3ccc(C#N)cc23)C1 |
| > 1000 | > 1000 | > 1000 |  |  |  | Cc1ccc([N+](=O)[O-])cc1S(=O)(=O)N1CCC(c2cnn3ccc(Br)cc23)CC1 |
| > 1000 | > 1000 | > 1000 |  |  |  | Cc1ccc([N+](=O)[O-])cc1S(=O)(=O)N[C@H]1CCN(Cc2cnn3ccc(C#N)cc23)C1 |
| 1280 | > 1000 | > 1000 |  |  |  | Cc1ccccc1[S+]([O-])c1nc(-c2cnn3ccc(Br)cc23)cs1 (centres undefined) |
| > 1000 | > 1000 | > 1000 |  |  |  | Cc1ccc([N+](=O)[O-])cc1Nc1nc(-c2cnn3ccc(Br)cc23)cs1 |
| > 1000 | > 1000 | > 1000 |  |  |  | Cc1ccc([N+](=O)[O-])cc1C(=O)N1CCN(Cc2cnn3ccc(C#N)cc23)CC1 |
